Data as given in patent publication US20050037074A1, “Delayed and sustained drug release” (priority 2001, published 2005).
Where two headings read alike, the source gives them in different places. Marks after values point to notes of the source that are not given here.

Tests used:
ACTH = assay: Circadian hydrocortisone infusion in a patient with congenital adrenal hyperplasia (CAH), ACTH and 17-OH progesterone; format: in vivo, human
Protocol: A treatment regime involves the following protocol. A patient begins a treatment regime at 0830 having taken normal medication the day before. An indwelling cannula is inserted into the patient and basal blood samples are obtained to determine basal levels of cortisol. An infusion cannula is inserted for the administration of a bolus dose of hydrocortisone. Hydrocortisone is administered by infusion once basal samples taken (Patient details: body weight=113 kg; iv bolus 24 mg at 09:00 and follow the infusion rates changed on hourly bases). Total dose for the 1st day is 34.3 mg and 21.8 mg is given by 09:00 in the 2nd day). Samples are taken from the patient periodically from 0900 to 0900 and sampled hourly for cortisol, and ACTH
Dilute 100 mg of hydrocortisone in 2 ml of water for injection (concentration 1 mg/20 ul). Give bolus injection of 24 mg hydrocortisone (480 ul or 0.48 ml of hydrocortisone) using a 1 ml insulin syringe. Flush through with normal saline. For infusion put 50 mg of hydrocortisone (1 ml) in 49 mls normal saline=1 mg/ml and the run infusion according to the protocol above.
(§1) Serum was separated from blood samples immediately after collection and stored at minus 20° C. until analysis. Cortisol concentrations were measured using an ACS:180 automatic chemiluminescence system (Kiron Diagnostic Corporation, East Walpole, USA). Intra- and inter-assay coefficients of variation were less than 7.6%.
The method comprised the infusion of a patient suffering from CAH with hydrocortisone and the measurement of cortisol and ACTH levels. The patient is a person with CAH who is currently treated with oral hydrocortisone.
The infusion protocol for the patient is described in FIG. 5. […] Concomitant with the fall in ACTH the 17-OH progesterone fell from >500 nmol/l to a nadir of 67 nmol/l.

[1] = Study 2: pharmacokinetics of individually tailored (BSA- or weight-adjusted) dose of oral HC in adrenal-insufficient patients; format: in vivo, human; conditions: fasted
Protocol: as §1
(§2) The study was carried out in two groups of adrenal-insufficient patients, and a group of healthy subjects. It was approved by the North Sheffield Local Research Ethics Committee, and all participants gave written informed consent. All patients had primary or secondary adrenal insufficiency based on a 0900 h serum cortisol level off treatment of less than 50 nmol/l. Normal controls were matched to the second group of patients for gender, age, height, weight and BSA within 10% of individual patients. Patients on oestrogen replacement were studied after having stopped oestrogen for 6 weeks.
Study 2—Pharmacokinetics of individually tailored dose of oral HC and testing of monitoring protocol: A further 10 patients (6M, 4F; 46-68 y; BMI 24.4-35.5 kg/m^2) were studied after receiving HC doses of 5.5 mg/m^2 BSA (to the nearest practical dose unit) at 0830 h, 1 h before breakfast. The dosage was derived from analysis of the Study 1 data to minimise inter-subject variability. A tablet cutter was used to adjust the HC dose in 2.5 mg quanta, i.e. quarters of 10 mg tablets. Thus, the absolute dose ranged from 7.5 to 12.5 mg. Blood sampling was as in Study 1. Serum concentrations of endogenous cortisol were measured in 7 healthy subjects (3M, 4F; 44-68 y; BMI 23.2-28.7 kg/m^2) at the same time points as the patients but without ingestion of HC.
Owing to the discrete nature of dose increments (multiples of 2.5 mg) 9 of the 10 patients who had taken the BSA-adjusted HC dose would still require the same dose if this had been weight-adjusted. Only one of the 10 patients needed a reduction in the HC dose from 12.5 mg to 10.0 mg to be in the nearest weight-adjusted dose range.
Therefore, in the part of our analysis that was related to body weight-adjusted doses, the serum cortisol levels of this patient were normalised to a 10.0 mg dose assuming concentration-dose proportionality.
(§3) Kinetic analysis of the serum cortisol concentration-time profiles in the patients was carried out using the software package, P-Pharm (version 1.5, InnaPhase, France), assuming mono-exponential disposition, first-order absorption, and a baseline correction to account for any endogenous levels of cortisol. Values of oral clearance (CL/F), volume of distribution (V/F), absorption rate constant (ka) and absorption lag time (tlag) were obtained from the model fitting and were used to derive other parameter values. Bias in dosing was assessed as the percentage difference in AUC values in patients compared to the AUC of endogenous cortisol in the healthy subjects over the same time period. Variability in the features of the serum cortisol concentration-time profile in the patients was expressed as coefficient of variation (CV). The effect of food intake in Study 1 was assessed using ANOVA, accounting for repeat individual measurements in the fasting state. Body surface area, weight, height, BMI, dose of HC, gender and age were also investigated as co-variables. All statistical analyses were carried out using SPSS version 10.0 (SPSS Inc, USA).

[2] = in vivo; cited from earlier work
[3] = 20 mg hydrocortisone, cited from earlier work
[4] = cited from earlier work
[5] = Study 1: pharmacokinetics of 10 mg fixed dose oral HC in adrenal-insufficient patients; format: in vivo, human; conditions: for oral clearance / half-life: 10 mg oral, mean±S.E.M.; for Bias (AUC), % difference from healthy matched controls / Variability in AUC (C.V.) / Variability in Cmax (C.V.): Fixed 10 mg, listed as HC; for half-life: both sexes, human, serum, po, 10 mg, read-out: absorption half-life
Protocol: as §1, §2
Study 1—Pharmacokinetics of 10 mg fixed dose oral HC: Ten patients (5M, 5F, Age 32-72 yrs, BMI 21.7-35.8 kg/m^2) attended the Programmed Investigation Unit on 3 occasions. They discontinued HC replacement from noon on the day prior to the study and fasted from midnight. On the first and third occasions, the patients fasted throughout the study and, on the second occasion, they received a standard breakfast 20-30 minutes before receiving HC. On each of the 3 study days, patients received 10 mg of HC (Hydrocortone™, Merck, Sharp and Dohme) orally, between 0800-0900 h. Peripheral venous blood samples were taken immediately before dosage and at 20, 40, 50, 60, 70, 80, 90, 100, 120, 180, 240, 300 and 360 minutes after dosage; the serum was collected and stored pending assay for HC.
as §3

[6] = Weight-adjusted (0.12 mg/kg), if weight adjustment was assumed

## C[C@]12CCC(=O)C=C1CC[C@@H]1[C@@H]2[C@@H](O)C[C@@]2(C)[C@H]1CC[C@]2(O)C(=O)CO [hydrocortisone, Hydrocortisone]
ACTH; CAH patient on conventional oral hydrocortisone therapy, start of infusion
  17-OH progesterone before the fall: > 500 nmol/L
ACTH; CAH patient, during hydrocortisone infusion
  17-OH progesterone nadir: 67 nmol/L
ACTH; CAH patient, infusion simulating delayed and sustained release hydrocortisone
  morning ACTH after overnight increase in cortisol: prevents the high morning ACTH
ACTH; CAH patient, iv bolus 24 mg then circadian infusion
  ACTH during the infusion: rapidly falls
[1]; BSA-adjusted (5.5 mg/m^2)
  Bias (AUC), % difference from healthy matched controls: 7.4%
  Variability in AUC (C.V.): 24%**
  Variability in Cmax (C.V.): 10%*
[1]; [6]
  Variability in AUC (C.V.): 22%**
  Variability in Cmax (C.V.): 7%*
[2]
  oral bioavailability: 94-96%
[3]; IV administration
  half-life: 1.7 h
  total body clearance: 18 L/h
  volume of distribution: 34 L
[3]; oral vs IV, average
  Oral bioavailablity: 96%
[3]; oral
  time to maximum levels (absorption): 1 h
[4]; basal conditions, plasma
  circulating cortisol bound to CBG: about 75%
[4]; in vivo
  cortisol and metabolites conjugated in the liver and excreted in the urine: Over 90%
  cortisol excreted in the urine unchanged: less than 1%
[5]; fasted
  oral clearance: 0.270 ± 0.027 L/min
  Bias (AUC), % difference from healthy matched controls: 6.3%
  Variability in AUC (C.V.): 50%
  Variability in Cmax (C.V.): 31%
  half-life: 15 ± 4 min
[5]; fed
  oral clearance: 0.226 ± 0.031 L/min
  Bias (AUC), % difference from healthy matched controls: 24.5%
  Variability in AUC (C.V.): 45%
  Variability in Cmax (C.V.): 36%
  half-life: 43 ± 12 min
